Assay results taken from ChEMBL document CHEMBL3085706, “Scorpiand-like azamacrocycles prevent the chronic establishment of Trypanosoma cruzi in a murine model” (Eur J Med Chem, 2013).
Active and inactive are the calls of the source. No cut-off for these calls is given here.

Assays:
[1] = Inhibition of Escherichia coli Mn-SOD assessed as reduction of nitrobluetetrazolium measured for 10 mins by spectrophotometric analysis
Mus musculus [2] = assay: Hepatotoxicity in BALB/c mouse infected with bloodstream trypomastigote form of Trypanosoma cruzi IRHOD/CO/2008/SN3 assessed as granuloma with lymphocytic infiltrate at 5 mg/kg/day, ip administered for 5 days measured 150 days post-infection by light microscopic analysis; type: toxicity, organism-based; design: route intraperitoneal; settings: in vivo, 3600 h
Trypanosoma cruzi [3] = assay: (§1) Trypanocidal activity against bloodstream trypomastigote form of Trypanosoma cruzi IRHOD/CO/2008/SN3 infected in cyclophosphamide monohydrate-treated BALB/c immunosuppression mouse model assessed as reduction of parasite load in heart at 5 mg/kg/day, ip administered for 5 days measured 150 days post-infection by PCR analysis; type: functional, organism-based
Trypanosoma cruzi [4] = assay: as §1, with “total anti-parasitic Ig-G level” for “parasite load”, “serum” for “heart”, “ELISA” for “PCR analysis”; type: functional, organism-based
Mus musculus [5] = assay: Hepatotoxicity in BALB/c mouse infected with bloodstream trypomastigote form of Trypanosoma cruzi IRHOD/CO/2008/SN3 assessed as centrilobular destruction of hepatic vein at 5 mg/kg/day, ip administered for 5 days measured 150 days post-infection by light microscopic analysis; type: toxicity, organism-based; design: route intraperitoneal; settings: in vivo, 3600 h
Trypanosoma cruzi [6] = assay: Inhibition of Fe-SOD in Trypanosoma cruzi IRHOD/CO/2008/SN3 epimastigotes assessed as reduction of nitrobluetetrazolium at 12.5 to 25 uM measured for 10 mins by spectrophotometric analysis relative to control
Mus musculus [7] = assay: Hepatotoxicity in BALB/c mouse infected with bloodstream trypomastigote form of Trypanosoma cruzi IRHOD/CO/2008/SN3 assessed as lymphocytic infiltration in portal tracts at 5 mg/kg/day, ip administered for 5 days measured 150 days post-infection by light microscopic analysis; type: toxicity, organism-based; design: route intraperitoneal; settings: in vivo, 3600 h
Trypanosoma cruzi [8] = assay: Trypanocidal activity against bloodstream trypomastigote form of Trypanosoma cruzi IRHOD/CO/2008/SN3 infected in BALB/c mouse assessed as reduction of parasite load in liver at 5 mg/kg/day, ip administered for 5 days measured 150 days post-infection by PCR analysis; type: functional, organism-based
Trypanosoma cruzi [9] = assay: Trypanocidal activity against epimastigote form of Trypanosoma cruzi IRHOD/CO/2008/SN3 assessed as induction of ethanol production at IC25 after 96 hrs by NMR spectra analysis; type: functional, organism-based
Mus musculus [10] = assay: Hepatotoxicity in BALB/c mouse infected with bloodstream trypomastigote form of Trypanosoma cruzi IRHOD/CO/2008/SN3 assessed as hepatic destruction in portal space at 5 mg/kg/day, ip administered for 5 days measured 150 days post-infection by light microscopic analysis; type: toxicity, organism-based; design: route intraperitoneal; settings: in vivo, 3600 h
Trypanosoma cruzi [11] = assay: Trypanocidal activity against bloodstream trypomastigote form of Trypanosoma cruzi IRHOD/CO/2008/SN3 infected in BALB/c mouse assessed as reduction of circulating parasite burden at 5 mg/kg, ip administered for 5 to 10 days measured 22 to 60 days post-infection by Neubauer hemocytometric analysis; type: functional, organism-based; design: dose 5 mg/kg
Trypanosoma cruzi [12] = assay: Trypanocidal activity against bloodstream trypomastigote form of Trypanosoma cruzi IRHOD/CO/2008/SN3 infected in BALB/c mouse assessed as reduction of anti-parasitic Ig-G level in serum at 5 mg/kg/day, ip administered for 5 days measured over 40 to 120 days post-infection by ELISA; type: functional, organism-based
Trypanosoma cruzi [13] = assay: Trypanocidal activity against epimastigote form of Trypanosoma cruzi IRHOD/CO/2008/SN3 assessed as appearance of large vacuoles at IC25 after 96 hrs by transmission electron microscopic analysis; type: functional, organism-based
Trypanosoma cruzi [14] = assay: Trypanocidal activity against extracellular epimastigote form of Trypanosoma cruzi IRHOD/CO/2008/SN3 after 72 hrs by Neubauer hemocytometric analysis; type: functional, organism-based; settings: IRHOD/CO/2008/SN3, 72 h
Vero = assay: Cytotoxicity against African green monkey Vero cells after 72 hrs by flow cytometric analysis; type: cell-based; settings: Chlorocebus sabaeus
[15] = Selectivity index, ratio of IC50 for African green monkey Vero cells to IC50 for intracellular amastigote form of Trypanosoma cruzi IRHOD/CO/2008/SN3; type: toxicity, cell-based; settings: read-out: Ratio IC50
Trypanosoma cruzi [16] = assay: as §1, with “reactivation” for “reduction”, “parasitemia level” for “parasite load in heart”, “(reference value: 91.7 %)” for “by PCR analysis”; type: functional; settings: route intraperitoneal
Mus musculus [17] = assay: Hepatotoxicity in BALB/c mouse infected with bloodstream trypomastigote form of Trypanosoma cruzi IRHOD/CO/2008/SN3 assessed as vessels with thickened walls at 5 mg/kg/day, ip administered for 5 days measured 150 days post-infection by light microscopic analysis; type: toxicity, organism-based; design: route intraperitoneal; settings: in vivo
[18] = Inhibition of Fe-SOD in Trypanosoma cruzi IRHOD/CO/2008/SN3 epimastigotes assessed as reduction of nitrobluetetrazolium measured for 10 mins by spectrophotometric analysis
Mus musculus [19] = assay: Hepatotoxicity in BALB/c mouse infected with bloodstream trypomastigote form of Trypanosoma cruzi IRHOD/CO/2008/SN3 assessed as interstitial hemorrhage at 5 mg/kg/day, ip administered for 5 days measured 150 days post-infection by light microscopic analysis; type: toxicity, organism-based; design: route intraperitoneal; settings: in vivo, 3600 h
Trypanosoma cruzi [20] = assay: Trypanocidal activity against epimastigote form of Trypanosoma cruzi IRHOD/CO/2008/SN3 assessed as inhibition of acetate excretion at IC25 after 96 hrs by NMR spectra analysis; type: functional, organism-based
Trypanosoma cruzi [21] = assay: Trypanocidal activity against trypomastigote form of Trypanosoma cruzi IRHOD/CO/2008/SN3 infected in African green monkey Vero cells assessed as inhibition of trypomastigotes released in culture medium at IC25 relative to control; type: functional
Mus musculus [22] = assay: Hepatotoxicity in BALB/c mouse infected with bloodstream trypomastigote form of Trypanosoma cruzi IRHOD/CO/2008/SN3 assessed as delocalized hepatic destruction at 5 mg/kg/day, ip administered for 5 days measured 150 days post-infection by light microscopic analysis; type: toxicity, organism-based; design: route intraperitoneal; settings: in vivo, 3600 h
Trypanosoma cruzi [23] = assay: (§2) Trypanocidal activity against amastigote form of Trypanosoma cruzi IRHOD/CO/2008/SN3 infected in African green monkey Vero cells assessed as inhibition of amastigotes load per cell at IC25 preincubated for 12 hrs followed by compound washout measured after 10 days by Giemsa staining-based microscopic analysis relative to control; type: functional
Trypanosoma cruzi [24] = assay: Trypanocidal activity against intracellular amastigote form of Trypanosoma cruzi IRHOD/CO/2008/SN3 infected in African green monkey Vero cells after 72 hrs by Giemsa staining assay; type: functional, organism-based; settings: IRHOD/CO/2008/SN3, Vero
Trypanosoma cruzi [25] = assay: Trypanocidal activity against epimastigote form of Trypanosoma cruzi IRHOD/CO/2008/SN3 assessed as abundant larger acidocalcisomes at IC25 after 96 hrs by transmission electron microscopic analysis; type: functional, organism-based
Trypanosoma cruzi [26] = assay: Trypanocidal activity against epimastigote form of Trypanosoma cruzi IRHOD/CO/2008/SN3 assessed as empty mitochondria at IC25 after 96 hrs by transmission electron microscopic analysis; type: functional, organism-based
[27] = Selectivity index, ratio of IC50 for African green monkey Vero cells to IC50 for extracellular epimastigote form of Trypanosoma cruzi IRHOD/CO/2008/SN3; type: toxicity, cell-based; settings: read-out: Ratio IC50
Trypanosoma cruzi [28] = assay: Trypanocidal activity against epimastigote form of Trypanosoma cruzi IRHOD/CO/2008/SN3 assessed as inhibition of lactate excretion at IC25 after 96 hrs by NMR spectra analysis; type: functional, organism-based
Trypanosoma cruzi [29] = assay: as §1, with “liver” for “heart”; type: functional, organism-based
Trypanosoma cruzi [30] = assay: Trypanocidal activity against epimastigote form of Trypanosoma cruzi IRHOD/CO/2008/SN3 assessed as inhibition of alanine excretion at IC25 after 96 hrs by NMR spectra analysis; type: functional, organism-based
Trypanosoma cruzi [31] = assay: Trypanocidal activity against epimastigote form of Trypanosoma cruzi IRHOD/CO/2008/SN3 assessed as effect on succinate production at IC25 after 96 hrs by NMR spectra analysis; type: functional, organism-based
Trypanosoma cruzi [32] = assay: as §2, with “parasite infection rate” for “amastigotes load per cell”; type: functional
[33] = Selectivity index, ratio of IC50 for African green monkey Vero cells to IC50 for extracellular trypomastigote form of Trypanosoma cruzi IRHOD/CO/2008/SN3; type: toxicity, cell-based; settings: read-out: Ratio IC50
Trypanosoma cruzi [34] = assay: Trypanocidal activity against extracellular trypomastigote form of Trypanosoma cruzi IRHOD/CO/2008/SN3 after 24 hrs by Neubauer hemocytometric analysis; type: functional, organism-based; settings: IRHOD/CO/2008/SN3, 24 h
Trypanosoma cruzi [35] = assay: Trypanocidal activity against bloodstream trypomastigote form of Trypanosoma cruzi IRHOD/CO/2008/SN3 infected in BALB/c mouse assessed as reduction of parasite load in heart at 5 mg/kg/day, ip administered for 5 days measured 150 days post-infection by PCR analysis; type: functional, organism-based
Trypanosoma cruzi [36] = assay: Trypanocidal activity against epimastigote form of Trypanosoma cruzi IRHOD/CO/2008/SN3 assessed as dispersed cytoplasm at IC25 after 96 hrs by transmission electron microscopic analysis; type: functional, organism-based
Trypanosoma cruzi [37] = assay: Trypanocidal activity against epimastigote form of Trypanosoma cruzi IRHOD/CO/2008/SN3 assessed as appearance of strongly electrondensed glycosomes at IC25 after 96 hrs by transmission electron microscopic analysis; type: functional, organism-based
Mus musculus [38] = assay: Hepatotoxicity in BALB/c mouse infected with bloodstream trypomastigote form of Trypanosoma cruzi IRHOD/CO/2008/SN3 assessed as presence of necrotic cells in portal space at 5 mg/kg/day, ip administered for 5 days measured 150 days post-infection by light microscopic analysis; type: toxicity, organism-based; design: route intraperitoneal; settings: in vivo, 3600 h

SMILES: Cl.c1cncc(CNCCN2CCNCc3cccc(n3)CNCC2)c1
- IC50 [1]: 63.6 µM
- Activity (Mus musculus [2]): Toxic
- Activity (Trypanosoma cruzi [3]): Active
- Activity (Trypanosoma cruzi [4]): Active
- Activity (Mus musculus [5]): Non-toxic
- inhibition (Trypanosoma cruzi [6]): 100%
- Activity (Mus musculus [7]): Toxic
- Activity (Trypanosoma cruzi [8]): Active
- Activity (Trypanosoma cruzi [9]): Active
- Activity (Mus musculus [10]): Non-toxic
- Activity (Trypanosoma cruzi [11]): Active
- Activity (Trypanosoma cruzi [12]): Active
- Activity (Trypanosoma cruzi [13]): Active
- IC50 (Trypanosoma cruzi [14]): 8 µM
- IC50 (Vero): 425 µM
- selectivity ratio [15]: 44.8
- Activity (Trypanosoma cruzi [16]): 5.6%
- Activity (Mus musculus [17]): Toxic
- IC50 [18]: 10.8 µM
- Activity (Mus musculus [19]): Non-toxic
- inhibition (Trypanosoma cruzi [20]): Active
- inhibition (INH) (Trypanosoma cruzi [21]): 89%
- Activity (Mus musculus [22]): Toxic
- inhibition (INH) (Trypanosoma cruzi [23]): 69%
- IC50 (Trypanosoma cruzi [24]): 9.5 µM
- Activity (Trypanosoma cruzi [25]): Active
- Activity (Trypanosoma cruzi [26]): Active
- selectivity ratio [27]: 52.7
- inhibition (Trypanosoma cruzi [28]): Active
- Activity (Trypanosoma cruzi [29]): Active
- inhibition (Trypanosoma cruzi [30]): Active
- Activity (Trypanosoma cruzi [31]): inactive
- inhibition (INH) (Trypanosoma cruzi [32]): 86%
- selectivity ratio [33]: 21.6
- IC50 (Trypanosoma cruzi [34]): 19.7 µM
- Activity (Trypanosoma cruzi [35]): Active
- Activity (Trypanosoma cruzi [36]): Active
- Activity (Trypanosoma cruzi [37]): Active
- Activity (Mus musculus [38]): Non-toxic

SMILES: NCCCNCCN1CCNCc2cccc(n2)CNCC1
- IC50 (Trypanosoma cruzi [14]): 21 µM
- IC50 (Vero): 167 µM
- selectivity ratio [15]: 8.3
- IC50 (Trypanosoma cruzi [24]): 20 µM
- selectivity ratio [27]: 8
- selectivity ratio [33]: 6.1
- IC50 (Trypanosoma cruzi [34]): 27.6 µM

SMILES: c1cc2nc(c1)CNCCN(CCNCc1cccc3ccccc13)CCNC2
- IC50 (Trypanosoma cruzi [14]): 10 µM
- IC50 (Vero): 325 µM
- selectivity ratio [15]: 20.2
- IC50 (Trypanosoma cruzi [24]): 16.1 µM
- selectivity ratio [27]: 31.2
- selectivity ratio [33]: 16.7
- IC50 (Trypanosoma cruzi [34]): 19.5 µM
